{"source": "patent US10786577B2", "about": "“Pharmaceutical composition comprising glutatione disulfide and glutathione disulfide S-oxide” (OBSCHESTVO S OGRANICHENNOY OTVETSTVENNOSTJU “IVA FARM”, priority 2017, dated 2020)", "key": {"[1]": {"tested_on": "cultured resident peritoneal rat macrophages", "experiment": "Intracellular calcium concentration [Ca2+]i with Fura-2AM in macrophages", "type": "cell-based"}, "[2]": {"tested_on": "glutathione peroxidase (XE 1.11.1.9)", "experiment": "Liver enzyme activity in rats with cyclophosphan hepatotoxicity", "details": "rat liver cytosolic fraction; cyclophosphan 20 mg/kg for 10 days; test substance intraperitoneally 10 mg/kg (compound 2: 0.1 mg/kg)"}, "[3]": {"tested_on": "glutathione reductase (XE 1.6.4.2)", "experiment": "Liver enzyme activity in rats with cyclophosphan hepatotoxicity", "details": "rat liver cytosolic fraction; cyclophosphan 20 mg/kg for 10 days; test substance intraperitoneally 10 mg/kg (compound 2: 0.1 mg/kg)"}, "[4]": {"tested_on": "glucose-6-phosphate dehydrogenase (XE 1.1.1.49)", "experiment": "Liver enzyme activity in rats with cyclophosphan hepatotoxicity", "details": "rat liver cytosolic fraction; cyclophosphan 20 mg/kg for 10 days; test substance intraperitoneally 10 mg/kg (compound 2: 0.1 mg/kg)"}, "[5]": {"tested_on": "glutathione-S-transferase (XE 2.5.1.18)", "experiment": "Liver enzyme activity in rats with cyclophosphan hepatotoxicity", "details": "rat liver cytosolic fraction; cyclophosphan 20 mg/kg for 10 days; test substance intraperitoneally 10 mg/kg (compound 2: 0.1 mg/kg)"}, "reduced glutathione": {"tested_on": "reduced glutathione", "experiment": "Liver reduced glutathione in rats with cyclophosphan hepatotoxicity", "details": "rat liver; cyclophosphan 20 mg/kg for 10 days; test substance intraperitoneally 10 mg/kg (compound 2: 0.1 mg/kg)"}}, "data": [{"smiles": "Nc1ncnc2c1ncn2[C@@H]1O[C@H](COP(=O)(O)OP(=O)(O)OP(=O)(O)O)[C@@H](O)[C@H]1O", "note": "[ATP]", "values": [{"measurement": "[Ca2+]i peak", "setting": "[1]; 200 μM extracellular ATP, macrophages in normal saline, basal level 75±18 nM", "result": "820 ± 105", "unit": "nM"}, {"measurement": "average [Ca2+]i during plateau phase", "setting": "[1]; 4 minutes after the addition of ATP (200 μM), normal saline", "result": "460 ± 115", "unit": "nM"}]}, {"smiles": "NC(CCC(=O)NC(CS[S+]([O-])CC(NC(=O)CCC(N)C(=O)O)C(=O)NCC(=O)O)C(=O)NCC(=O)O)C(=O)O", "note": "(stereo not shown) [Example 1, glutathione disulfide S-oxide]", "values": [{"measurement": "GP", "setting": "[2]", "result": "27.9 ± 2.2 μmol/(min × g protein"}, {"measurement": "GR", "setting": "[3]", "result": "117.8 ± 12.6 μmol/(min × g protein"}, {"measurement": "G-6-PDG", "setting": "[4]", "result": "98.1 ± 13.3 μmol/(min × g protein"}, {"measurement": "GST", "setting": "[5]", "result": "1857 ± 120 μmol/(min × g protein"}, {"measurement": "GSH", "setting": "reduced glutathione", "result": "11.21 ± 0.56", "unit": "μmol/g protein"}]}]}
